According to paper PMC10584170, “Machine learning-based phenotypic imaging to characterise the targetable biology of Plasmodium falciparum male gametocytes for the development of transmission-blocking antimalarials” (PLOS Pathogens, 2023):
Like-named read-outs stand apart in the source and are kept apart here.

Tests used:
[1] = system: P. falciparum male gametocytes; assay: PhIDDLI timecourse assay, compound added at timepoints after triggering male gametogenesis; type: cell-based, Plasmodium falciparum NF54; conditions: for cells with late phenotype / cells forming exflagellation centres: compound added at 10 min post-induction; for cells forming exflagellation centres: DMSO control 17.2%; for arrest of gametogenesis: compound added concurrent with triggering gametogenesis
[2] = system: P. falciparum female gametocytes; set-up: method as in Miguel-Blanco et al 2017; conditions: ref Miguel-Blanco et al 2017; read-out: Pf female gametogenesis FGAA IC50; cited from earlier work
HepG2 cells [3] = conditions: cited from earlier work; for FGAA TOX50 HepG2: HepG2 value reported with the FGAA screen, ref Miguel-Blanco et al 2017; for ODA TOX50 HepG2: HepG2 value reported with the ODA screen, ref Delves et al 2019
[4] = system: P. falciparum female gametocytes; assay: P. falciparum Dual Gamete Formation Assay (PfDGFA), female readout (Pfs25-positive female gametes); type: cell-based, Plasmodium falciparum NF54; conditions: for IC50: this study, read-out: Pf DGFA IC50 FEM
Summary of the method: (§1)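 Two sex-specific readouts come from one well: male exflagellation centres recorded by brightfield video right after activation, and female gametes scored by Cy3-anti-Pfs25 fluorescence after 24 h at 28°C.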

[5] = system: P. falciparum male gametocytes; assay: P. falciparum Dual Gamete Formation Assay (PfDGFA), male readout (exflagellation); type: cell-based, Plasmodium falciparum NF54; conditions: for IC50: this study, read-out: Pf DGFA IC50 MALE
Summary of the method: as §1

HepG2 cells [6] = assay: HepG2 cytotoxicity counter-screen; conditions: for Mean TOX: mean of the HepG2 TOX50 values
[7] = system: P. falciparum female gametocytes; assay: P. falciparum Female Gametocyte Activation Assay (PfFGAA); type: cell-based, Plasmodium falciparum; conditions: Mean TOX HepG2 over FGAA IC50; GREEN = >10-fold; RED = <10-fold

| Compound | cells with late phenotype [1] [%] | cells forming exflagellation centres [1] [%] | arrest of gametogenesis [1] | IC50 [2] [nM] | FGAA TOX50 HepG2 (HepG2 cells [3]) [µM] | Cytotox ratio Pf Female [4] | IC50 [4] [nM] | Cytotox ratio Pf Male [5] | IC50 [5] [nM] | Mean TOX (HepG2 cells [6]) [µM] | Cytotox ratio Pf FGAA [7] | ODA TOX50 HepG2 (HepG2 cells [3]) [µM] | DGFA Tox50 HepG2 (HepG2 cells [6]; HepG2 value reported with the DGFA screen) [µM] |
| --- | --- | --- | --- | --- | --- | --- | --- | --- | --- | --- | --- | --- | --- |
| CC(C)(CNC(=O)[C@H]1CCCCN1)c1nc(-c2ccc(Cl)c(O)c2)c(-c2ccncc2)[nH]1.Cl [TC04] | 86.3 | 0.4 | near total arrest | 530 | 28.96 | 39.8 | 1020 | 24.9 | 1630 | 40.64 | 76.7 | – | – |
| CC(C)(CN)c1nc(-c2ccc(Br)c(O)c2)c(-c2ccncc2)[nH]1.Cl [TC13] | 83.3 | 2.7 | near total arrest | 840 | 45.82 | 112.9 | 570 | 43.5 | 1480 | 64.38 | 76.6 | 47.315 | 100 |
| Cl.NCC1(c2nc(-c3ccc(Cl)c(O)c3)c(-c3ccncc3)[nH]2)CCCCC1 [TC41] | 84.9 | 1.1 | near total arrest | 210 | 11.9 | 53.2 | 430 | 26.9 | 850 | 22.85 | 108.8 | 46.774 | – |
